Laboratory results from publication PMC10568017, “A quest for the stereo-electronic requirements for selective agonism for the neurotrophin receptors TrkA and TrkB in 17-spirocyclic-dehydroepiandrosterone derivatives” (Frontiers in Molecular Neuroscience, 2023).

Columns and labels:
[1] = Metabolic stability in pooled human liver microsomes; type: in vitro ADME; details: 1 μM
Procedure, shortened: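 Test compounds at 1 µM incubated in triplicate with pooled human liver microsomes (0.5 mg/mL) and ~1 mM NADPH at 37 °C, stopped after 60 min. Parent loss classed very slow (<5%) to very fast (>80%); metabolism rated high, moderate or low by t1/2 cut-offs of 30 and 60 min.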

TrkB = molecular target: T1, TrkB (Mus musculus, UniProt P15209); test: TrkB phosphorylation assay in primary astrocytes (Western blot); type: cell-based; details: compound 1 μM, 20 min, after 6 h serum starvation, BDNF 500 ng/mL as control
T1 construct: primary cortical astrocytes from 2-day-old mice (as a natively TrkB-expressing neuronal population); endogenous in cells; host or cells: primary cortical astrocytes from C57B/6 mouse pups (P2)
Protocol: We tested compounds on three cellular systems, primary cortical astrocytes from 2-day-old mice (as a natively TrkB-expressing neuronal population), and NIH-3T3 fibroblasts stable transfected with TrkB and NIH-3T3 naïve cells. Cells were grown with high-glucose DMEM medium supplemented with 10% fetal bovine serum (FBS), 100 μg/mL streptomycin, and 100 units/mL penicillin at 37°C in a humidified 5% CO2 atmosphere. Phosphorylation results presented here are in primary astrocytes, and cell toxicity assay results are in NIH-3T3 stable transfected cells with TrkB.
Cells were plated in 12 well plates, at a density of 100,000 cells per well, with 6 h of serum deprivation carried out on the following day. To assess the effect of compounds on TrkB phosphorylation, 20-min treatments were applied, using either BDNF at 500 ng/mL (Peprotech 450-02) (positive control) or compounds at 1 μM.
Cell lysis for 10 min was carried out on ice using the Pierce IP Lysis Buffer by Thermo Scientific and a phospho-protease inhibitor cocktail by Millipore. After adding loading buffer (5 × Laemni), 25 μg from each protein sample were incubated for 5 min at 95°C and subjected to SDS-PAGE. Proteins were transferred to a nitrocellulose membrane at 350 mA for 2 h. Membrane blocking was performed using 5% bovine serum albumin (BSA) at room temperature for 1 h, before adding the primary antibodies to the blocking solution at 4°C overnight. HRP-conjugated secondary antibodies were used for the detection of chemiluminescence with ECL solution. Primary antibodies: Phospho-TrkB (Tyr816) Millipore # ABN1381, and Anti-TrkB Abcam #ab33655.
Mixed glial cultures were isolated from the cortex of C57B/6 pups at post-natal day 2 (P2). Cells were plated in a medium containing high-glucose DMEM, 200 U/mL penicillin, 200 μg/mL streptomycin, and 10% fetal bovine serum (FBS). When cells reach 100% confluency (7–8 days), the anti-mitotic agent Ara-C was added in the media at a final concentration of 10 μM, for 3 to 4 days to target the highly proliferative microglial cells. Ara-C was removed, and primary astrocytes (97% purity) were cultured at 5% CO2 and 37°C.
Cells were plated at 70–80% confluency. The next day, they were deprived of serum for 6 h and subsequently treated with 500 ng/mL BDNF or 1 μM of compounds for 20 min. Cells were then lysed in Pierce™ IP Lysis Buffer (87788, Thermo Fischer Scientific, Rockford, USA), containing proteases (539138, Calbiochem, Darmstadt, Germany), and phosphatase inhibitors (524629, Calbiochem, Darmstadt, Germany). Lysates were then suspended in an SDS loading buffer and subjected to Western blot against phosphorylated TrkB (1:1,000, ABN1381, Sigma-Aldrich, St. Louis, MO, USA) and total TrkB (1:1,000, 07-225-I, Sigma-Aldrich, St. Louis, MO, USA).

T1 sequence (P15209 32-821): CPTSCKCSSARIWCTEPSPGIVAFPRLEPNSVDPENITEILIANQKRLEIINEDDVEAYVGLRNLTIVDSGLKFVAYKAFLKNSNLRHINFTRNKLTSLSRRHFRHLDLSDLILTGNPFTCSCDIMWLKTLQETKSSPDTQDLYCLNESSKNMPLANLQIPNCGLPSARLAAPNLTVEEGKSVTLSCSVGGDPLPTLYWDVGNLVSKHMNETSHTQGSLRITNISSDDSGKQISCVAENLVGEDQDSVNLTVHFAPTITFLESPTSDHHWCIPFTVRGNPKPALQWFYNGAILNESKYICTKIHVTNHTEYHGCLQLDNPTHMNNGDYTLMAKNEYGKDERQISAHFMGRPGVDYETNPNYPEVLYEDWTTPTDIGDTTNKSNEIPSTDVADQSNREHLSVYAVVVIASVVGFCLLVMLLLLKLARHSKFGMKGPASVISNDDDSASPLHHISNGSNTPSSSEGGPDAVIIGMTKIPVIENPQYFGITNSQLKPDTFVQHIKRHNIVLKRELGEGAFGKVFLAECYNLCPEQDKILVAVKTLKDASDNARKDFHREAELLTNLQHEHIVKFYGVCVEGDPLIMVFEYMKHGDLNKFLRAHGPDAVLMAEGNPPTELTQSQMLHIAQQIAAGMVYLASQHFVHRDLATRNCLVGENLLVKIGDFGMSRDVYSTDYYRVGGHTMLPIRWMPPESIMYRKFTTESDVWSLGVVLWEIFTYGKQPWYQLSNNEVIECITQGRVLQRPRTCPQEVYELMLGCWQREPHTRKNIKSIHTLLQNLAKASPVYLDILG

C[C@]12CC[C@H](O)CC1=CC[C@@H]1[C@@H]2CC[C@@]2(C)[C@H]1CC[C@@]21CC=C(Cn2cc(Cc3ccccc3)nn2)CO1 [ENT-A055, (3S,17R)-5′-[(4-benzyl-1H-1,2,3-triazol-1-yl)methyl]-3′,6′-dihydrospiro[5-androstene-17,2′-pyran]-3-ol]
residual of time zero ([1]; pooled human liver microsomes 0.5 mg/mL, t = 60 min, NADPH): > 95%
parent structure loss (depletion) class ([1]; pooled human liver microsomes, 60 min): very slow (very slow (<5%))
phosphorylation levels of the TrkB receptor (TrkB): successfully increased phosphorylation levels of the TrkB receptor compared to the untreated control
